target: alanyl aminopeptidases (APN) (Homo sapiens, UniProt P15144); test: Inhibition of alanyl aminopeptidase enzymatic activity, fluorogenic substrate (Ala)2-rhodamine 110; assay type: biochemical; settings: Table 4, starred values = ID50; read-out: ID50 APN (values marked with *)
Experimental: The inhibition characteristics measured are referred to as IC-50 values or ID50 values (the latter marked with “*”) for said enzyme. The enzymatic activity was determined by means of the fluorogenic substrate/product (Ala)2-rhodamine 110.

alanyl aminopeptidases (APN), sequence (P15144 whole entry, species assumed): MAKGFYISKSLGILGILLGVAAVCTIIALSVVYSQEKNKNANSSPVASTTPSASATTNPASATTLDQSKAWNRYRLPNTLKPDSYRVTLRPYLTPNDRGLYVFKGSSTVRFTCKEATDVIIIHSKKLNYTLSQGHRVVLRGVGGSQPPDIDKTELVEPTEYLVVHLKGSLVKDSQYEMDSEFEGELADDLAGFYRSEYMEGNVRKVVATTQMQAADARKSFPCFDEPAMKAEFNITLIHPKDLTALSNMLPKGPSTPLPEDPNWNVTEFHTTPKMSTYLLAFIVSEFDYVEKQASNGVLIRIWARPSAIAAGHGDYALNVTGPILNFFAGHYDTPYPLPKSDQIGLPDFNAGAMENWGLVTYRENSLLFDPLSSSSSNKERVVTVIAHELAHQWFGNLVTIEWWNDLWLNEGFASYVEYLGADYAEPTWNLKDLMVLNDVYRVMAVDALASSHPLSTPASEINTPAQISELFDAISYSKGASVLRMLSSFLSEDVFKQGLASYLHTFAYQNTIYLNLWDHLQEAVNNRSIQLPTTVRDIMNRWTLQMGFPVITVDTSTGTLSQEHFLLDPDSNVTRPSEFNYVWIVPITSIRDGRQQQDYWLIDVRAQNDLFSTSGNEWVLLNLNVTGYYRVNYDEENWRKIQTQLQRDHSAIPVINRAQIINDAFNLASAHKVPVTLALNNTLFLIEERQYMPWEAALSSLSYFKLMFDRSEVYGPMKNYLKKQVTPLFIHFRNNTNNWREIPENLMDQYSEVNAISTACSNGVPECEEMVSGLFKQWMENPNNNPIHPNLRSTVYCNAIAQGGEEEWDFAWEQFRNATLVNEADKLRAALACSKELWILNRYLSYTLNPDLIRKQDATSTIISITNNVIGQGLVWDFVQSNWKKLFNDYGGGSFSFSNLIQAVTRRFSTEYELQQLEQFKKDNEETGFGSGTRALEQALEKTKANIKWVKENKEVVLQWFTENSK

| SMILES | IC50 |
| --- | --- |
| Cc1cccc(C(=O)Nc2ccc(C(=O)N/N=C/c3ccc4c(c3)OCO4)cc2)c1 [A4.105] | 33.8 µM |
| COc1ccc(C(=O)N/N=C\c2cc(Br)c(O)c(O)c2Br)cc1 [A4.124] | 39.7 µM |
| O=C(O)CC1S/C(=N/N=C/c2ccco2)NC1=O (centres unmarked) [A4.138] | 48.1 µM |
| O=C(CNC(=O)c1ccccc1)N/N=C/c1ccco1 [A4.140] | 49.4 µM |
| Cc1ccc(OCC(=O)N/N=C/c2c(Br)cc(Br)c(O)c2Br)c(Br)c1 [A4.147] | 54.2 µM |

same assay, conditions: Table 4, unstarred values; read-out: IC50APN

| SMILES | IC50 |
| --- | --- |
| Cc1ccc(/C=N/NC(=O)c2cccc(CC(=O)c3ccccc3C)c2)o1 [A4.047] | 18.9 µM |
| Cc1cc(I)ccc1NC(=O)CCC(=O)N/N=C/c1ccco1 [A4.048] | 9.5 µM |
| Cc1ccccc1S(=O)(=O)Nc1cccc(C(=O)N/N=C/c2ccco2)c1 [A4.049] | 19.2 µM |
| CCCOc1ccccc1-c1c[nH]c(C(=O)N/N=C/c2ccco2)c1 [A4.051] | 19.5 µM |
| O=C(N/N=C/c1cc(Br)cc(Br)c1OC(=O)c1ccccc1)/C(=C/c1ccc2c(c1)OCO2)NC(=O)c1ccccc1 [A4.052] | 19.8 µM |
| COc1ccc(/C(C)=N/NC(=O)CNC(=O)/C=C\c2ccco2)cc1OC [A4.053] | 19.9 µM |
| O=C(N/N=C/c1cc([N+](=O)[O-])ccc1O)c1ccc(O)cc1O [A4.054] | 20.2 µM |
| CC(=O)Oc1ccc([N+](=O)[O-])cc1/C=N/NC(=O)COc1cc(C)ccc1C(C)C [A4.055] | 20.3 µM |
| COc1cc(Br)ccc1OCC(=O)N/N=C/c1cc(Br)c(O)c(O)c1Br [A4.056] | 20.5 µM |
| O=C(N/N=C/c1ccco1)c1cccc(NC(=O)c2ccccc2Cl)c1 [A4.057] | 20.6 µM |
| O=C(N/N=C/c1ccco1)c1cc(-c2ccco2)n[nH]1 [A4.058] | 20.9 µM |
| O=C(COc1ccc2ccccc2c1)N/N=C/c1c(Br)cc(Br)c(O)c1Br [A4.059] | 21 µM |
| COc1ccc(C(=O)N/N=C/c2cc(Br)c(C)o2)cc1 [A4.060] | 21.8 µM |
| Cc1ccc(/C=N/NC(=O)COc2ccccc2C)o1 [A4.061] | 22.2 µM |
| O=C(N/N=C/c1ccco1)c1ccc(=O)[nH]n1 [A4.063] | 22.4 µM |
| O=C(N/N=C/c1ccco1)c1cccc(NC(=O)c2cccc(Br)c2)c1 [A4.064] | 22.4 µM |
| COc1ccc(C(=O)N/N=C/c2ccco2)cc1 [A4.065] | 22.6 µM |
| CCN(CC)c1ccc(/C=N/NC(=O)CNC(=O)/C=C/c2ccco2)cc1 [A4.066] | 22.8 µM |
| Cc1ccc(/C=N/NC(=O)c2ccc(NC(=O)c3ccccc3C)cc2)o1 [A4.067] | 22.8 µM |
| CC1=NNC(=O)C1CCC(=O)N/N=C\C=C\c1ccco1 (centres unmarked) [A4.068] | 23 µM |
| COc1cc(/C=N/NC(=O)/C(=C\c2ccc(N(C)C)cc2)NC(=O)c2ccccc2)cc([N+](=O)[O-])c1O [A4.069] | 23 µM |
| Cc1cc(C)cc(OCC(=O)N/N=C/c2ccco2)c1 [A4.070] | 23.4 µM |
| COc1ccc(CCCC(=O)N/N=C/c2ccco2)cc1 [A4.071] | 23.4 µM |
| Cc1ccc(/C=N/NC(=O)c2ccc(O)cc2)o1 [A4.072] | 23.4 µM |

| SMILES | IC50 |
| --- | --- |
| O=C(N/N=C/c1cc(Br)c(O)c(Br)c1O)/C(=C\c1ccc2c(c1)OCO2)NC(=O)c1ccccc1 [A4.073] | 23.6 µM |
| O=C(N/N=C\c1ccco1)c1ccc(Br)cc1 [A4.074] | 24.5 µM |
| Cc1ccc(C)n1-c1cccc(C(=O)N/N=C/c2cc(Br)c(O)c(Br)c2)c1 [A4.075] | 24.9 µM |
| COc1cc(/C=N/NC(=O)/C(=C/c2cccs2)NC(=O)c2ccccc2)cc([N+](=O)[O-])c1O [A4.076] | 25.1 µM |
| CCc1ccc(OCC(=O)N/N=C\c2ccco2)c([N+](=O)[O-])c1 [A4.077] | 25.1 µM |
| O=C(N/N=C/c1cc([N+](=O)[O-])ccc1O)c1ccc(Cl)cc1 [A4.078] | 25.7 µM |
| CCOc1ccc(Br)cc1C(=O)N/N=C/c1ccco1 [A4.079] | 25.8 µM |
| O=C(N/N=C/c1ccco1)c1cccc(NC(=O)c2ccc(F)cc2)c1 [A4.080] | 25.9 µM |
| O=C(CCCOc1ccc(Cl)cc1Cl)N/N=C/c1ccco1 [A4.081] | 26.3 µM |
| Cc1ccc(/C=N/NC2=NC(=O)CS2)o1 [A4.082] | 26.4 µM |
| Cc1ccc(/C=N/NC(=O)c2cc(O)cc(O)c2)o1 [A4.083] | 26.4 µM |
| Cc1ccc(/C=N/NC(=O)c2nnn(-c3nonc3N)c2CN2CCOCC2)o1 [A4.084] | 26.7 µM |
| CCCCCC(=O)N/N=C/c1ccco1 [A4.085] | 26.7 µM |
| CCCOc1ccc(/C=C(\NC(=O)c2ccccc2)C(=O)N/N=C/c2ccco2)cc1 [A4.086] | 27.3 µM |
| Cc1nn(-c2ccccc2)c(C)c1-c1cc(C(=O)N/N=C/c2ccco2)[nH]n1 [A4.087] | 27.4 µM |
| CC(/C=N/NC(=O)c1ccco1)=C\c1ccco1 [A4.088] | 27.5 µM |
| CC1SC(N/N=C/c2ccco2)=NC1=O (centres unmarked) [A4.089] | 27.7 µM |
| O=C(Cc1cccs1)N/N=C/C=C\c1ccco1 [A4.090] | 28 µM |
| CC(/C=C/c1ccco1)=N\NC(=O)CNc1ccc2ccccc2c1 [A4.091] | 28.5 µM |
| CC(N/N=C1/SC(CC(=O)O)C(=O)N1c1ccccc1)c1ccco1 (centres unmarked) [A4.092] | 28.6 µM |
| COc1ccc(/C(C)=N/NC(=O)CNC(=O)/C=C\c2ccco2)cc1 [A4.093] | 29.4 µM |
| O=C(N/N=C/c1ccco1)c1cccc(NC(=O)c2ccccc2)c1 [A4.094] | 29.5 µM |
| CC(=O)Nc1ccc(C(=O)N/N=C/c2ccc(C)o2)cc1 [A4.095] | 29.7 µM |
| Cc1ccc(/C=N/NC(=O)c2cccc(I)c2)o1 [A4.096] | 30 µM |

| SMILES | IC50 |
| --- | --- |
| O=C(N/N=C\c1ccco1)c1cnccn1 [A4.097] | 30.1 µM |
| Cc1occc1C(=O)N/N=C/C=C\c1ccco1 [A4.098] | 31 µM |
| Cc1cc(C(=O)N/N=C/c2ccc(C)o2)[nH]n1 [A4.100] | 31.8 µM |
| O=C(CNC(=O)c1ccccc1Br)N/N=C/c1ccoc1 [A4.101] | 31.9 µM |
| O=C(CC(=O)N/N=C/c1ccco1)N/N=C/c1ccco1 [A4.102] | 32.4 µM |
| O=C(N/N=C/c1ccco1)c1ccc(NC(=O)c2ccccc2Cl)cc1 [A4.103] | 32.5 µM |
| CCOc1ccc(-c2cc(C(=O)N/N=C/c3ccco3)[nH]n2)cc1OC [A4.104] | 33.4 µM |
| O=C(CCC(=O)Nc1cccc(Cl)c1)N/N=C/c1ccco1 [A4.106] | 34 µM |
| C/C(=N\NC(=O)c1ccccc1)c1ccc2ccccc2c1O [A4.107] | 34.2 µM |
| Cc1ccc(/C=N/NC(=O)c2ccc(F)cc2)o1 [A4.108] | 34.4 µM |
| O=C(Nc1ccccc1C(=O)N/N=C/c1ccco1)c1ccccc1Cl [A4.109] | 34.7 µM |
| COc1ccccc1C(=O)N/N=C/c1ccc(C)o1 [A4.110] | 34.7 µM |
| O=C(N/N=C/c1ccco1)c1cccc(I)c1 [A4.111] | 34.7 µM |
| CSc1nnc2n(/N=C/c3ccco3)cnn12 [A4.112] | 34.7 µM |
| CC(=O)n1cc(/C=C/C=N/NC(=O)CC#N)c2ccccc21 [A4.113] | 35.5 µM |
| COc1cc(-c2cc(C(=O)N/N=C/c3ccco3)[nH]n2)ccc1OC(C)C [A4.114] | 36.1 µM |
| Cc1cccc(C(=O)Nc2cccc(C(=O)N/N=C/c3ccc(C)o3)c2)c1 [A4.115] | 36.2 µM |
| COc1cc(Br)ccc1OCC(=O)N/N=C(C)/C=C/c1ccco1 [A4.116] | 36.3 µM |
| Cc1ccc(OCC(=O)N/N=C/c2ccco2)cc1C [A4.117] | 36.3 µM |
| CC(/C=N/NC(=O)C(O)c1ccccc1)=C\c1ccco1 (centres unmarked) [A4.118] | 36.3 µM |
| Cc1c(Cl)cccc1NC(=O)CCC(=O)N/N=C/c1ccco1 [A4.119] | 36.6 µM |
| O=C(N/N=C/c1ccco1)c1ccccc1 [A4.120] | 37.7 µM |
| COc1ccc2ccccc2c1-c1cc(C(=O)N/N=C(\C)c2ccco2)[nH]n1 [A4.121] | 38.2 µM |
| O=C(N/N=C/c1ccco1)c1ccc(O)cc1O [A4.122] | 38.3 µM |

| SMILES | IC50 |
| --- | --- |
| CC(=O)Nc1ccc(C(=O)N/N=C/c2ccco2)cc1 [A4.123] | 38.4 µM |
| O=C(CCC(=O)Nc1ccccc1)N/N=C/c1ccco1 [A4.125] | 41.1 µM |
| Cc1cc(Br)c(OCC(=O)N/N=C/c2c(Br)cc(Br)c(O)c2Br)c(Br)c1 [A4.126] | 42.2 µM |
| COc1ccc(OC)c(-c2cc(C(=O)N/N=C/c3ccco3)[nH]n2)c1 [A4.127] | 43.2 µM |
| O=C(Cn1cnc2ccccc21)N/N=C/c1ccco1 [A4.128] | 43.3 µM |
| Cc1ccc(/C=N/NC(=O)c2ccc(N3CCCC3=O)cc2)o1 [A4.129] | 44.2 µM |
| O=C(N/C=C1/C(=O)Nc2ccc(F)cc21)/C(=C/c1ccccc1)NC(=O)c1ccccc1 [A4.130] | 44.2 µM |
| COc1ccccc1C(=O)N/N=C/c1ccco1 [A4.131] | 44.7 µM |
| O=C(N/N=C/c1cccc([N+](=O)[O-])c1)c1ccco1 [A4.132] | 45.4 µM |
| Cc1ccccc1C(=O)Nc1ccc(C(=O)N/N=C/c2ccco2)cc1 [A4.133] | 45.4 µM |
| CC(C)Oc1ccc(Br)cc1C(=O)N/N=C/c1ccco1 [A4.134] | 46.6 µM |
| Nc1nonc1-n1nnc(C(=O)N/N=C/c2ccco2)c1-c1ccccc1 [A4.135] | 46.6 µM |
| COc1ccc(N(C(C)C(=O)N/N=C/c2ccco2)S(C)(=O)=O)cc1 (centres unmarked) [A4.136] | 47 µM |
| O=C(COc1ccc2ccccc2c1Br)N/N=C/c1ccco1 [A4.137] | 47.3 µM |
| Cc1cc(C(=O)N/N=C/c2ccco2)[nH]n1 [A4.139] | 48.2 µM |
| NC(=S)N/N=C/c1ccco1 [A4.141] | 50 µM |
| Cc1ccc(/C=N/NC(=O)c2cc(C)oc2C)o1 [A4.142] | 50.2 µM |
| CCCCCCCC(=O)N/N=C/c1ccco1 [A4.143] | 50.3 µM |
| Cc1ccc(/C=N\NC(=O)Cc2cccs2)o1 [A4.144] | 51.1 µM |
| CC(/C=C/c1ccco1)=N\NC(=O)COc1ccc(C(C)(C)C)cc1 [A4.145] | 53.4 µM |
| O=C(N/N=C/c1cc(Br)ccc1OC(=O)c1ccc([N+](=O)[O-])cc1)/C(=C\c1ccc2c(c1)OCO2)NC(=O)c1ccccc1 [A4.146] | 54.2 µM |
| O=C(CNS(=O)(=O)c1ccc2c(c1)OCCO2)N/N=C/c1ccco1 [A4.148] | 55.6 µM |
| C/C(=N\NC(=O)c1cc(-c2ccccc2)n[nH]1)c1ccco1 [A4.149] | 58.3 µM |
| O=C(CNC(=O)c1ccccc1F)N/N=C/c1ccc([N+](=O)[O-])o1 [A4.150] | 60 µM |

— US20070037752A1, “Novel alanyl-amino peptidase inhibitors for functionally influencing different cells and treating immunological, inflammatory, neuronal, and other diseases” (priority 2003, published 2007)
